Legend:
[1] = pKa of photostabilizer (half neutralization potential titration); type: physicochemical; settings: non-aqueous titration, HNP calibration curve
Protocol: (Method of Measuring pKa of Photostabilizer)
A solution of 0.1 N perchloric acid/dioxane and acetonitrile:chloroform=1:1 was added dropwise to an organic reference substance having known pKa value in an aqueous system to determine the half neutralization potential (HNP) by titration in a non-aqueous system. A plot of the HNP calibration curve for pKa was prepared. Then, titration was performed for the photostabilizer in the same manner to determine a corresponding pKa from the plot of calibration curve.

[2] = pKa of ultraviolet absorber upon light absorption; type: physicochemical; settings: when irradiated with light, absorption spectrum; for pKa: acetonitrile solution titrated with 70% perchloric acid
Protocol: (Method of Measuring pKa of Ultraviolet Absorber Upon Light Absorption)
The ultraviolet absorber was dissolved in acetonitrile so that the absorbance at the maximum absorption wavelength became 1, and bubbling with nitrogen was performed for 15 minutes. Then, 70% perchloric acid was dropped into the solution to change the pH of the solution. At that time, the absorption spectrum of the solution was measured, and, from the absorbance at λmax, the ultraviolet absorber at each pH and the ultraviolet absorber in which hydrogen ion is added to the nitrogen of the benzotriazole skeleton or triazine skeleton of the ultraviolet absorber were obtained. From the point where these values become equal, pKa of the ultraviolet absorber upon light absorption was determined. Measurement of the absorption spectrum was performed by using a U-4000 spectrophotometer manufactured by Hitachi High-Technologies Corporation.

Structure (SMILES)	Photostabilizer pKa [1]	also measured
CCCCN(c1nc(NCCO)nc(N(CCCC)C2CC(C)(C)N(OC3CCCCC3)C(C)(C)C2)n1)C1CC(C)(C)N(OC2CCCCC2)C(C)(C)C1 [Tinuvin 152]	7.0	–
CCCCCCCCCCCON1C(C)(C)CC(OC(=O)OC2CC(C)(C)N(OCCCCCCCCCCC)C(C)(C)C2)CC1(C)C [LA-81]	5.5	–
CC1(C)CC(OC(=O)CCCCCCCCC(=O)OC2CC(C)(C)NC(C)(C)C2)CC(C)(C)N1 [Chimassorb 770]	9.0	–
CC(C)(C)CC(C)(C)c1ccc(O)c(-n2nc3ccccc3n2)c1 [Tinuvin 329]	–	Ultraviolet absorber pKa ([2]; acetonitrile, 70% perchloric acid): −4.9
CCCCCCCCCCCCCCN1C(=O)NC2(CC(C)(C)N(C(C)=O)C(C)(C)C2)C1=O [8-acetyl-3-tetradecyl-7,7,9,9-tetramethyl-1,3,8-triazaspiro[4.5]decane-2,4-dione]	–	pKa [1]: 3.5
CCCCC(Cc1cc(C(C)(C)C)c(O)c(C(C)(C)C)c1)(C(=O)OC1CC(C)(C)N(C)C(C)(C)C1)C(=O)OC1CC(C)(C)N(C)C(C)(C)C1 [Tinuvin PA144]	9.5	–
CCCCCCCCON1C(C)(C)CC(OC(=O)CCCCCCCCC(=O)OC2CC(C)(C)N(OCCCCCCCC)C(C)(C)C2)CC1(C)C [Tinuvin 123]	4.7	Photostabilizer pKa ([1]; listed as Tinuvin123): 4.5
Cc1cc(-n2nc3ccc(Cl)cc3n2)c(O)c(C(C)(C)C)c1 [Tinuvin 326, 2-(5-chloro-2-benzotriazolyl)-6-tert-butyl-p-cresol]	–	pKa [2]: -4.9
CCCCCCCCOc1ccc(-c2nc(-c3ccc(C)cc3C)nc(-c3ccc(C)cc3C)n2)c(O)c1 [CYASORB UV-1164, 2,4-bis(2,4-dimethylphenyl)-6-(2-hydroxy-4-n-octyloxyphenyl)-1,3,5-triazine]	–	pKa [2]: -5
